Measurements taken from PubChem BioAssay (NCI).
Several values for one entry are separate records, joined by “and”; a condition that tells them apart may be missing. Equal values may be shown once.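 Tested at 5 concentrations; 48 h exposure; 96-well plates; endpoints linearly interpolated, else capped at highest concentration. At the GI50, growth is halved. TGI: total growth inhibition.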 Numbered stars: 1 amine (or outer) side, 2 acyl side, 3 side chain; on linkers, the order of the positions; unused ones are H or OH. Bridge positions count the residues as written; N and C are the ends. Square brackets hold non-standard residues; d marks the D form. Peptide text beside a SMILES is read from it. I, II: the chains in the order shown. Actinocin(1to9) = Cc1c2oc3c(C)ccc(C(=O)[*:2])c3nc-2c(C(=O)[*:1])c(N)c1=O; NMeY = CN[CH](Cc1ccc(O)cc1)C(=O)O; Sar = CNCC(=O)O

Key:
Test in all cases: DTP human tumour cell line panel, 48 h
A549 NSCLC = tested on: A549 NSCLC
M14 melanoma = tested on: M14 melanoma
NCI-H460 lung = tested on: NCI-H460 lung
OVCAR-4 ovarian = tested on: OVCAR-4 ovarian
SK-MEL-28 melanoma = tested on: SK-MEL-28 melanoma
UACC-257 melanoma = tested on: UACC-257 melanoma
HOP-92 NSCLC = tested on: HOP-92 NSCLC
NCI/ADR-RES ovarian = tested on: NCI/ADR-RES ovarian
PC-3 prostate = tested on: PC-3 prostate
DU-145 prostate = tested on: DU-145 prostate

Structure (SMILES) | TGI (A549 NSCLC) | TGI (M14 melanoma) [µM] | TGI (NCI-H460 lung) [µM] | TGI (OVCAR-4 ovarian) [µM] | TGI (SK-MEL-28 melanoma) [µM] | TGI (UACC-257 melanoma) [µM] | TGI (HOP-92 NSCLC) [µM] | GI50 (A549 NSCLC) [µM] | GI50 (HOP-92 NSCLC) | GI50 (M14 melanoma) | GI50 (NCI-H460 lung) [µM] | GI50 (NCI/ADR-RES ovarian) | TGI (NCI/ADR-RES ovarian) | GI50 (OVCAR-4 ovarian) [µM] | GI50 (PC-3 prostate) [µM] | TGI (PC-3 prostate) [µM] | GI50 (SK-MEL-28 melanoma) [µM] | GI50 (UACC-257 melanoma) [µM] | TGI (DU-145 prostate) [µM] | GI50 (DU-145 prostate) [µM]
Nc1c2ccccc2nc2c(C(=O)Nc3ccc(S(N)(=O)=O)cc3)cccc12 | > 100 µM | > 100 | > 100 | > 100 | > 100 | > 100 |  |  |  |  |  |  |  |  |  |  |  |  |  | 
C[C@H]1C=C2C(=O)O[C@H]3CC[C@@H](C1)[C@@]23O | 34.3 µM | 14.7 | 19.4 | 24.4 | 16.1 | 22.9 | 16.3 |  |  |  |  |  |  |  |  |  |  |  |  | 
CC1c2[nH]c3ccccc3c2CCN1O (stereo not drawn) | > 100 µM | > 100 |  | > 100 | > 100 | > 100 | > 100 |  |  |  |  |  |  |  |  |  |  |  |  | 
COC(=O)N/N=C(\C)CC(=O)Nc1ccc(Cl)cc1 | > 100 µM | > 100 | > 100 |  | > 100 | > 100 | > 100 |  |  |  |  |  |  |  |  |  |  |  |  | 
COc1ccc([C@@H]2OC(=O)C3C2C(=O)O[C@H]3c2ccc(OC)c(OC)c2)cc1OC (stereo partly drawn) | > 100 µM | > 100 | > 100 | > 100 | > 100 | > 100 | > 100 |  |  |  |  |  |  |  |  |  |  |  |  | 
O=P(O)(O)OCC1OC(n2cnc3c(NCc4ccccc4)ncnc32)C(O)C1O (stereo not drawn) | > 88.4 µM | > 100 | > 59.3 | 33.1 | > 100 | > 100 | > 22.5 | 7.21 | 2.14 µM | 2.68 µM | 10.6 | 1.19 µM | 30.7 µM | 0.642 | 1.2 | > 36.2 | 21.2 | > 75.2 |  | 
CCC[CH2][Sn]1([CH2]CCC)[S]CC[N]1S(=O)(=O)c1ccc(C)cc1 | 9.32 µM | 3.12 | 5.44 | 3.27 | 2.61 | 2.5 | 2.46 | 3.15 | 1.19 µM | 1.64 µM | 2.5 |  |  | 1.85 |  |  | 1.29 | 1.23 |  | 
CC[PH+](CC)CC.[Cl][Au] | 44.4 µM | 2.53 | 47.9 | 2.97 | 2.35 | 2.36 | 2.72 | 15.5 | 1.28 µM | 1.17 µM | 16.2 |  |  | 1.47 |  |  | 0.78 | 1.09 |  | 
C=C1C(OC(C)=O)CC(OC(C)=O)C2(C)C(OC(C)=O)C(OC(C)=O)C3=C(C)C(OC(=O)/C=C/c4ccccc4)CC(C(OC(C)=O)C12)C3(C)C (stereo not drawn) | > 100 µM | > 100 | > 100 | > 100 |  | > 100 | 65.7 |  |  |  |  |  |  |  |  |  |  |  |  | 
COCCNc1cncc(C(N)=O)c1 | > 100 µM | > 100 | > 100 | > 100 | > 100 | > 100 |  |  |  |  |  |  | > 100 µM |  |  | > 100 |  |  | > 100 | 
C=C1C[C@@H]2C[C@@H](C)CC(O)[C@]2(CCCN)C1O (stereo partly drawn) | > 100 µM | > 100 | > 100 | > 100 | > 100 | > 100 | > 100 |  |  |  |  |  |  |  |  |  |  |  |  | 
O=C([O-])CC(=O)[O-].[NH-][C@@H]1CCCC[C@H]1[NH-].[Pt+4] | > 100 µM | > 100 | > 100 | > 100 | > 100 | > 100 | > 100 | 11.1 | > 100 µM | 16.7 µM | 3.17 |  |  | > 33.9 | 37 | > 100 | 35.8 | > 89 | > 100 | 93
CCOC(=O)C1=C(C)NC(c2ccco2)=C(C#N)C1c1cccc([N+](=O)[O-])c1 (stereo not drawn) |  | 3.28 | 0.432 | 74.8 | 22.5 | 26.2 |  | 0.0293 |  | 0.0132 µM | 0.0633 |  | 0.356 µM | 4.53 |  | 0.0554 | 0.0105 | 0.0882 | 4.02 | 0.0316
CO[C@@]1(c2ccccc2)O[C@H]2OCCC2[C@H]1c1ccc(Cl)cc1 (stereo partly drawn) | > 100 µM | > 100 | 57.8 | 91.1 | > 100 | 44.6 |  |  |  |  |  |  |  |  |  |  |  |  |  | 
COc1ccc2c(c1)CN1CCc3c(cc(OC)c(OC)c3OC)C1C2 (stereo not drawn) | > 100 µM | > 100 |  | > 100 | > 100 | > 100 | > 100 |  |  |  |  |  |  |  |  |  |  |  |  | 
COc1cc(/C=N/N=C(\N)NO)c([N+](=O)[O-])cc1OC | > 100 µM | > 100 | > 100 | > 100 | > 100 | > 100 | 91.7 |  |  |  |  |  |  |  |  |  |  |  |  | 
CC1=CCCC2C(C=O)(C1)CC(C)C2(CO)CC/C(=C/CO)CO (stereo not drawn) | > 100 µM | > 100 | > 100 |  | > 100 | > 100 | 87.6 |  |  |  |  |  |  |  |  |  |  |  |  | 
COc1c(N2CCN(CN3C(=O)C(=Nc4ccc(S(=O)(=O)Nc5ncccn5)cc4)c4cc(Cl)ccc43)C(C)C2)c(F)cc2c(=O)c(C(=O)O)cn(C3CC3)c12 (stereo not drawn) | > 50 µM | 44.7 | 46 |  | > 50 | 17.7 | > 50 | 18.5 | 19.2 µM | 13.8 µM | 10.9 | 12.3 µM | 38.1 µM |  | 15 | > 50 | 30.4 | 6.77 | > 50 | 16.3
CC(=O)[O-].N.N.N.N.[Co+3].[O-][Cl+3]([O-])([O-])[O-].[OH3+] | > 100 µM | > 100 | > 100 | > 100 | > 100 | > 100 | > 100 | > 100 | > 100 µM | > 100 µM | > 100 |  |  | > 100 |  |  | > 100 | > 100 |  | 
COc1ccc(CC2C(=O)OC(C)C(NC(=O)c3c4nc5c(C(=O)NC6C(=O)NC(C(C)C)C(=O)N7CCCC7C(=O)N(C)CC(=O)N(C)C(Cc7ccc(OC)cc7)C(=O)OC6C)ccc(C)c5oc-4c(C)c(=O)c3N)C(=O)NC(C(C)C)C(=O)N3CCCC3C(=O)N(C)CC(=O)N2C)cc1 (stereo not drawn) (I: TVP[Sar][NMeY](Me) / II: TVP[Sar][NMeY](Me); ester I:1-I:C, II:1-II:C; linker I:N-II:N via Actinocin(1to9); configuration not given here) | 0.29 µM and > 1 µM |  | < 0.01 | < 0.01 |  |  |  |  | < 0.01 µM and 0.035 µM | < 0.01 µM and 0.0665 µM | < 0.01 | 0.0901 µM and > 0.863 µM | 11.5 µM and > 1 µM |  |  |  |  |  |  | 
